In patent publication US6107312A, “Thiopyridines for use in the control of helicobacter bacteria” (BYK Gulden Lomberg Chemische Fabrik GmbH, priority 1994, dated 2000):
In brackets after ≈: the same amount, converted by molar mass.

System: Helicobacter pylori
Test: activity against Helicobacter pylori (method of Iwahi et al., Columbia agar, growth period of 4 days)
Assay type: cell-based
Settings: Columbia agar (Oxoid); for MIC50: 96 h, read-out: Approximate MIC50

Row | MIC50 [µg/mL] | SMILES | Approximate MIC50 [µg/mL]
1 | ~0.1 (≈ 0.237 µM) | C=CC(=O)n1c(SCc2nccc(SCc3ccco3)c2C)nc2ccccc21 [Compound 8, 1-Acryloyl-2-{[[4-(2-furylmethylthio)-3-methyl-2-pyridinyl]methyl]thio}benzimidazole] | 
2 | ~0.5 (≈ 1.12 µM) | Cc1c(SCc2ccco2)ccnc1CSc1nc2ccccc2n1S(C)(=O)=O [Compound 10, 2-{[[4-(2-Furylmethylthio)-3-methyl-2-pyridinyl]methyl]thio}-1-methylsulfonyl-benzimidazole] | 

Further lines, the compound ahead of its results:

Row | SMILES | MIC50 [µg/mL] | Approximate MIC50 [µg/mL]
3 | CC(=O)n1c(SCc2nccc(SCc3ccco3)c2C)nc2ccccc21 [Compound 7, 1-Acetyl-2-{[[4-(2-furylmethylthio)-3-methyl-2-pyridinyl]methyl]thio}benzimidazole] | ~0.5 (≈ 1.22 µM) | 
4 | Cc1c(SCc2ccco2)ccnc1CSc1nc2cccnc2[nH]1 [Compound 1, 2-{[[4-(2-Furylmethylthio)-3-methyl-2-pyridinyl]methyl]thio}-1H-imidazo-[2,3-b]-pyridine] | ~0.1 (≈ 0.271 µM) | 
5 | CCCC(=O)n1c(SCc2nccc(SCc3ccco3)c2C)nc2ccccc21 [Compound 9, 1-n-Butyroyl-2-{[[4-(2-furylmethylthio)-3-methyl-2-pyridinyl]methyl]thio}benzimidazole] |  | ~0.1
